Test results taken from patent US20070219193A1, “ALKYLAMINE-SUBSTITUTED BICYCLIC ARYL COMPOUNDS USEFUL AS MODULATORS OF PPAR” (KALYPSYS, INC, priority 2006, published 2007).

Experiments:
Type in all cases: cell-based
[1] = target: T1, PPAR alpha (Homo sapiens, UniProt Q07869); assay: Full-length PPAR transcriptional activation assay (PPRE::Luciferase reporter, HEK293 cells), PPAR alpha; details: transfected HEK293 cells, species of receptor not given
T1 construct: expressed in transfected cells; host or cells: HEK293
T1 sequence (Q07869 1-468): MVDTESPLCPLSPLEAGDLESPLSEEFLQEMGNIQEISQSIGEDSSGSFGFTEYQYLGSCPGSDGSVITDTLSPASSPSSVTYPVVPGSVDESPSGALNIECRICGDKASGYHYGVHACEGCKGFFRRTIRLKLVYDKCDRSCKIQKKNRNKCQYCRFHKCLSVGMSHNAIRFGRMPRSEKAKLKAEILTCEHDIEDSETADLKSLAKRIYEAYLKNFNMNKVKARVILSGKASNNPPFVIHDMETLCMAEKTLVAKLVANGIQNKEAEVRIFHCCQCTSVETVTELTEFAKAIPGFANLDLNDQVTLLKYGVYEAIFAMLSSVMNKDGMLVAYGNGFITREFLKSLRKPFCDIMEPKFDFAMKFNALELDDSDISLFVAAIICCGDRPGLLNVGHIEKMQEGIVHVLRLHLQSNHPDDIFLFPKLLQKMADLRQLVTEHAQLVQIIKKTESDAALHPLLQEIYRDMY
Description: (§1) HEK293 cells were seeded the day before transfection into 384-well plates at a cell density of 6,000 cells per well in 40 μl assay medium I (phenol red-free DMEM containing 4% charcoal-dextran stripped FBS, 1% Penicillin-Streptomycin and 1% GlutaMax-1). Then 25 ng of PPRE::Luciferase reporter plasmid, an expression plasmid (25 pg of PPARα, or 40 pg of PPARδ, or 75 pg of PPARγ2), and an appropriate amount of the plasmid pUC19 to bring the total DNA amount to 50 ng was added to 20 μl of phenol-red free DMEM and 150 nL of Fugene 6 and incubated for 30 minutes. The transfection mixtures were then added to the cells and incubated for three hours. 10 μl of test agents in 5% DMSO were then added to the cells and incubated at 37° C. for an additional 18 hours. Luciferase activity was then assayed by adding 25 μl/well of Britelite (Perkin Elmer) according to the manufacturer's protocol and relative light output was measured with an Analyst GT plate reader (Molecular Devices). All experimental points were done in triplicate and the assays were repeated at least 3 times.
(§2) HEK293 cells were seeded the day before transfection in […] dishes at a density of 9×10^6 cells/dish and incubated at 37° C., 10% CO2 for 16-24 hours. Then, […] of PPRE::Luciferase reporter plasmid, an expression plasmid (7.5 ng of PPARα, or 7.5 ng of PPARδ, or 75 ng of PPARγ2), and an appropriate amount of the plasmid pUC19 to bring the total DNA amount to […] were mixed with 54 μl of Fugene 6 in 2 mls of phenol red-free DMEM and incubated for 30 minutes. Transfection mixtures were then incubated with the cells for 18 hours. Cells were then replated into sterile, white TC treated 384-well assay plates at a cell density of 24×10^3 cells/well in 40 μl of assay medium II (phenol-red free DMEM containing 3% charcoal/dextran-stripped FBS, 1% Penicillin-Streptomycin and 1% GlutaMax-1) and incubated at 37° C. for 6 hours. 10 μl of test agents in 5% DMSO were then added to the cells and incubated at 37° C. for an additional 18 hours. Luciferase activity was then assayed by adding 30 μl/well of Britelite (Perkin Elmer) according to the manufacturer's protocol and relative light output was measured with an Analyst GT plate reader (Molecular Devices). All experimental points were done in triplicate and the assays were repeated 3 times.

[2] = target: T2, PPAR delta (Homo sapiens, UniProt Q03181); assay: Full-length PPAR transcriptional activation assay (PPRE::Luciferase reporter, HEK293 cells), PPAR delta; details: transfected HEK293 cells, species of receptor not given
T2 construct: expressed in transfected cells; host or cells: HEK293
T2 sequence (Q03181 1-441): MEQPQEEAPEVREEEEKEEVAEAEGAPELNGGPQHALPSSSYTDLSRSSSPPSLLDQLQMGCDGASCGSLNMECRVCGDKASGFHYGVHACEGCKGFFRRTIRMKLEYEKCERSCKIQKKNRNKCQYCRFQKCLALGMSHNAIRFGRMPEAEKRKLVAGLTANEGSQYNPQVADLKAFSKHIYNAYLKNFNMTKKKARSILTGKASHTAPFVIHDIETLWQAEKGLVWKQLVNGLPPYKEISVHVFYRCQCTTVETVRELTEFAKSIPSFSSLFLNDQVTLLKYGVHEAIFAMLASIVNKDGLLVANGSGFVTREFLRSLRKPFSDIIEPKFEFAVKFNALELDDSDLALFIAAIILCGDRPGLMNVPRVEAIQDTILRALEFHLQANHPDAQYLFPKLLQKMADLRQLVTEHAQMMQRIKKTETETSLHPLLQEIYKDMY
Description: as §1, §2

[3] = target: T3, PPAR gamma (Homo sapiens, UniProt P37231); assay: Full-length PPAR transcriptional activation assay (PPRE::Luciferase reporter, HEK293 cells), PPAR gamma; details: transfected HEK293 cells (PPARγ2 plasmid), species of receptor not given
T3 construct: expressed in transfected cells; host or cells: HEK293
T3 sequence (P37231 1-505): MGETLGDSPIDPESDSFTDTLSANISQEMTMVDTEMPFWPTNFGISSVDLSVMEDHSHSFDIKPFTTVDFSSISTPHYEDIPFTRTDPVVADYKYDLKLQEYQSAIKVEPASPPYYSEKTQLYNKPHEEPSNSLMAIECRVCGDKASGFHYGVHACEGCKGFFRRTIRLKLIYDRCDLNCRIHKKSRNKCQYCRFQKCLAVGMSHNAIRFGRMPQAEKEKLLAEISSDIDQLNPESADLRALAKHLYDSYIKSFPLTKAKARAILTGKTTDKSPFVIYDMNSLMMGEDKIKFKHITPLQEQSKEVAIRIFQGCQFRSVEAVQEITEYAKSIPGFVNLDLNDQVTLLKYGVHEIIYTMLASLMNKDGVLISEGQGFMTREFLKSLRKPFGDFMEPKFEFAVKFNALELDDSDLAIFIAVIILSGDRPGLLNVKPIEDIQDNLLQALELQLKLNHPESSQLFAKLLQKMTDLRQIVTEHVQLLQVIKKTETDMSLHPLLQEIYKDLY
Description: as §1, §2

Row | EC50 [1] | EC50 [2] | EC50 [3] | SMILES
1 | > 1000 nM | ≤ 1000 nM | ≤ 1000 nM | CCc1cnc(N(CCCC2Oc3cccc(CC(=O)O)c3CC2C)Cc2ccc(OC(F)(F)F)cc2)nc1 (single isomer, unassigned) [Example 19B, 2-(2-(3-((5-ethylpyrimidin-2-yl)(4-(trifluoromethoxy)benzyl)amino)propyl)-3-methylchroman-5-yl)acetic acid]
2 | > 1000 nM | ≤ 1000 nM | ≤ 1000 nM | CCc1cnc(N(CCCC2Oc3cc(CC(=O)O)ccc3CC2C)Cc2ccc(OC(F)(F)F)cc2)nc1 (single isomer, unassigned) [Example 18A, 2-(2-(3-((5-ethylpyrimidin-2-yl)(4-(trifluoromethoxy)benzyl)amino)propyl)-3-methylchroman-7-yl)acetic acid]
3 | > 1000 nM | ≤ 1000 nM | ≤ 1000 nM | CCc1cnc(N(CCCC2Oc3cccc(CC(=O)O)c3CC2C)Cc2ccc(OC(F)(F)F)cc2)nc1 (single isomer, unassigned) [Example 19D, 2-(2-(3-((5-ethylpyrimidin-2-yl)(4-(trifluoromethoxy)benzyl)amino)propyl)-3-methylchroman-5-yl)acetic acid]

More lines, now with the values behind:

Row | SMILES | EC50 [1] | EC50 [2] | EC50 [3]
4 | CCc1cnc(N(CCCC2CCc3c(CC(=O)O)cccc3O2)Cc2ccc(OC(F)(F)F)cc2)nc1 (stereo not drawn) [Example 13, 2-(2-(3-((5-Ethylpyrimidin-2-yl)(4-(trifluoromethoxy)benzyl)amino)propyl)chroman-5-yl)acetic acid] | > 1000 nM | ≤ 1000 nM | ≤ 1000 nM
5 | CCc1cnc(N(CCCN2CCc3ccc(CC(=O)O)cc3C2)Cc2ccc(OC(F)(F)F)cc2)nc1 [Example 1, (2-{3-[(5-Ethyl-pyrimidin-2-yl)-(4-trifluoromethoxy-benzyl)-amino]-propyl}-1,2,3,4-tetrahydro-isoquinolin-7-yl)-acetic acid] | > 1000 nM | ≤ 1000 nM | ≤ 1000 nM
6 | CCc1cnc(N(CCC2CCc3ccc(CC(=O)O)cc3O2)Cc2ccc(C(F)(F)F)cc2)nc1 (stereo not drawn) [Example 16, 2-(2-(2-((5-ethylpyrimidin-2-yl)(4-(trifluoromethyl)benzyl)amino)ethyl)chroman-7-yl)acetic acid] | ≤ 1000 nM | ≤ 1000 nM | ≤ 1000 nM
7 | CCc1cnc(N(CCCC2CCc3c(CC(=O)O)cccc3O2)Cc2ccc(C(F)(F)F)cc2)nc1 (stereo not drawn) [Example 11, (2-{3-[(5-Ethyl-pyrimidin-2-yl)-(4-trifluoromethyl-benzyl)-amino]-propyl}-chroman-5-yl)-acetic acid] | > 1000 nM | ≤ 1000 nM | ≤ 1000 nM
